Source: patent US11427575B2, “Antitumor compound for activating JWA gene and degrading HER2, preparation method thereof, and application thereof” (SIMCERE PHARMACEUTICAL CO., LTD., priority 2019, dated 2022)

What was measured:
[1] = system: HER2 protein; test: Western blot of subcutaneous BT474 tumors, HER2; assay type: in vivo, BALB/c nude mice; settings: treatment group
Description: BT474 human breast cancer cells in the logarithmic growth phase were suspended in ice-cold suspension buffer for a final concentration of 5×10^6/100 μL, followed by subcutaneous transplantations of the suspended cells into BALB/c nude mice. When the tumor grown up to 75-125 mm^3, the BALB/c nude mice were randomly divided into five equal groups, including a blank control group (Mock), a solvent control group (Vehicle), a 50 mg/kg JAC1 treatment group, a 100 mg/kg JAC1 treatment group, and a positive control group treated with Pacilitaxel and Trastuzumab (TH). Dose and administration: JAC1 was injected intraperitoneally into mice once daily; the dosage of Trastuzumab was 10 mg/kg injected intraperitoneally twice a week; the dosage of Pacilitaxel was 20 mg/kg injected intraperitoneally once a week. From the day of administration, mouse body weights and tumor diameters were measured every other 2 days, and the tumor volume was calculated using an equation. When the mice reached a humane endpoint at which the tumor volume increased to 2500-3000 mm^3, the research based on the mouse models was terminated and the laboratory mice were anesthetized and euthanized in a timely manner to alleviate animal suffering and perform the statistical analysis. […]

[2] = system: JWA protein; test: Western blot of subcutaneous BT474 tumors, JWA; assay type: in vivo, BALB/c nude mice; settings: treatment group
[3] = system: HER2 protein; test: Laser confocal immunofluorescence in HER2-positive breast cancer cells, HER2 level and localization; assay type: cell-based, human; settings: immunofluorescence, 0, 1, 10 μM, 24 h
Description: The cells were inoculated into a 35 mm glass bottom dish, treated with different concentrations (0, 1, and 10 μM) of JAC1 for 24 h, fixed with methanol for 15 min, washed three times with PBST, blocked with normal sheep serum for 1 h, and incubated in primary antibody overnight at 4° C. The cells were then washed three times with PBST, incubated in fluorescent secondary antibody and 4′,6-diamidino-2-phenylindole (DAPI), and photographed using a laser confocal scanning microscopy.

[4] = H&E staining, tumor-bearing nude mice
Text: A model of nude mice subcutaneously transplanted with human breast cancer cells was built with reference to the method of Example 16. The laboratory mice that have been modeled were anesthetized and euthanized to observe and determine whether damage occurred to the major organs of laboratory mice. The major organs tissues from the laboratory mice, such as heart, liver, spleen, lung, kidney, and brain, were fixed in formalin solution using conventional methods. After paraffin embedding and tissue sectioning, the thick tissue sections were stained with H&E to observe whether the organ tissues were normal in morphology.

[5] = system: SKBR3 cells; settings: SKBR3, 1 and 10 μM, 10-15 d, vs control
Description: (§1) Two human breast cancer cell lines BT474 and SKBR3 were incubated in DMEM medium containing, respectively, 20% and 10% fetal bovine serum (FBS), conventional double-antibody, and were placed in a 37° C. incubator with 5% CO2. The BT474 and SKBR3 cells in the logarithmic growth phase were transferred into 6-well plates for 800 cells per well. After the cells adhered to the walls of the plates, the cells were cultured in the medium containing different concentrations (0, 1, and 10 μM) of JAC1, respectively. By observing the formation of each cell colony, the cells were continued to be cultured for 10-15 d, followed by removal of medium. After fixation with methanol and photographing, the number of the cell colonies (each containing more than 50 cells) was counted using the software ImageJ, and the computer program SPSS is used for statistical analysis.

[6] = system: BT474 cells; settings: BT474, 1 and 10 μM, 10-15 d, vs control
Description: as §1

[7] = system: HER2 protein; test: Western blot in BGC823 gastric cancer cells (JWA WT and JWA KO), HER2; assay type: cell-based, human; settings: 10 μM, 48 h
Text: A HER2-positive BGC823 human gastric cancer cell line was established in which JWA gene was deleted using Crisp/cas9 technology. […] After protein extraction, western blotting technology was used to determine the expression levels of JWA and HER2 proteins in the wild-type cell line (JWA WT) and the JWA-knockout cell line (JWA KO).

For COc1cccc2sc(Nc3nc4c(F)cccc4s3)nc12 [JAC1, 4-fluoro-N-(4-methoxybenzene (d)thiazole-2-group) benzene (d) thiazole-2-amine], the “HER2 protein level in tumor” value [1] was “repressed significantly”, the “JWA protein level in tumor” value [2] was “significantly increased” and the HER2 protein level [3] was “HER2 protein level reduced”. The “cellular localization of HER2 protein” value [3] was “no effect on the localization of HER2 protein in the cell membrane”, the “morphology of major organs (heart, liver, spleen, lung, kidney, brain)” value [4] was “no obvious anomalies were observed” and the colony-forming ability [5] was “significantly reduce the colony-forming ability”. For the same compound, the colony-forming ability [6] was “significantly reduce the colony-forming ability”, the HER2 expression level ([7]; BGC823 JWA KO) was “no effect” and the HER2 expression ([7]; BGC823 JWA WT) was “repress HER2 expression”.
